# Patent publication US6960607B2, “Naphthyl benzoxazoles and benzisoxazoles as estrogenic agents” (Wyeth, priority 2001, dated 2005)
# How the values were obtained:
# [1] = biological target: T1, human ERβ (Homo sapiens, UniProt Q92731); assay: Radioligand binding competition with [3H]-17β-estradiol, ERβ; conditions: ligand binding domain expressed in E. coli lysate, read-out: ER-β IC50
# T1 construct: M214-Q530 of human ERβ; Flag (C); made in house; host or cells: E. coli BL21(DE3); clarified lysate used
# [2] = biological target: T2, human ERα (Homo sapiens, UniProt P03372); assay: Radioligand binding competition with [3H]-17β-estradiol, ERα; conditions: ligand binding domain expressed in E. coli lysate, read-out: ER-α IC50
# T2 construct: amino acids M250V595 of human ERα; His (N); made in house; host or cells: E. coli BL21(DE3); clarified lysate used
# T2 sequence (P03372 250-595): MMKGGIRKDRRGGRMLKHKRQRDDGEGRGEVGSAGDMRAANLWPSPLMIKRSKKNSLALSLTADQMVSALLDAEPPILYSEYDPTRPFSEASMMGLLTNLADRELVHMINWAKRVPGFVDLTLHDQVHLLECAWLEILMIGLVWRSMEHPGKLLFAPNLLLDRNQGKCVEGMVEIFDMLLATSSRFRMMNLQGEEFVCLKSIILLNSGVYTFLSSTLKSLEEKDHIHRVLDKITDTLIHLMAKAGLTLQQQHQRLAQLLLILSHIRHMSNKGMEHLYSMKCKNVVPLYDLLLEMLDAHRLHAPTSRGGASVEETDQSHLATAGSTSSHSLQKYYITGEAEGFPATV
# T1 sequence (Q92731 214-530): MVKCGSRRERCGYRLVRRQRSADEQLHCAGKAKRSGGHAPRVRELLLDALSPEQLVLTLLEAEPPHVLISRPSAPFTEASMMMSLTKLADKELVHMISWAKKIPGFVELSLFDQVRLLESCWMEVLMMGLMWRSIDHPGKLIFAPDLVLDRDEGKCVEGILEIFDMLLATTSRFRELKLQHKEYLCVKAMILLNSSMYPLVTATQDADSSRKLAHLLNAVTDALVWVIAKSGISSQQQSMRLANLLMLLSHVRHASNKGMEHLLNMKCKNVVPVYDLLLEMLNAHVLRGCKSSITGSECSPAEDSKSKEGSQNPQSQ
compound,measurement,setting,value
"Oc1ccc2oc(-c3ccc(O)c4ccccc34)nc2c1 [Example 6, 2-(4-Hydroxy-1-naphthyl)-1,3-benzoxazol-5-ol]",IC50,[1],230 nM
same,IC50,[2],0.581 µM
same,melting point,,182 to 184 °C
"Cn1nc(-c2ccc3cc(O)ccc3c2)c2ccc(O)cc21 [Example 17, 3-(6-Hydroxy-2-naphthyl)-1-methyl-1H-indazol-6-ol]",IC50,[1],1510 nM
same,IC50,[2],> 5 µM
same,melting point,,290 to 292 °C
"CCn1nc(-c2ccc3cc(O)ccc3c2)c2ccc(O)cc21 [Example 18, 1-Ethyl-3-(6-hydroxy-2-naphthyl)-1H-indazol-6-ol]",IC50,[1],> 5000 nM
same,IC50,[2],3.17 µM
same,melting point,,146 to 148 °C
